Test results as given in patent publication US4363805A, “Aminodesoxy-1.4;3.6-dianhydrohexitol nitrates and pharmaceutical composition” (Firma Willmar Schwabe, priority 1980, dated 1982).

How the values were obtained:
[1] = Acute toxicity, intravenous, mice; type: in vivo; details: mouse, in vivo; intravenous, within 24 hours; read-out: Evaluated LD50-range
female NMRI-albino mice = assay: Acute toxicity, intravenous, mice; type: in vivo; details: within 24 hours
[2] = test system: isolated guinea pig hearts; assay: Experiments on Langendorff hearts (coronary flowthrough, inotropism, frequency); details: Cavia porcellus, read-out: flowthrough, percentage change with regard to the initial value
Procedure: After reaching the stationary state in the 30th minute, the hearts were each perfused with 50 ml. tyrode solution with a content of test substance of, in each case, 25 μg./ml. Each test substance was tested on 3-6 hearts.
In each case, there was measured the inotropism, the flowthrough and the frequency, whereby the values given in Table I are average values of the percentage changes in comparison with the initial values.

narcotised guinea pigs = assay: Blood pressure experiments on guinea pigs, i.v.; type: in vivo, guinea pig; details: for blood pressure before: before administration
mongrel cats [3] = assay: Inotropic and heart-circulatory effectiveness on narcotised cats, intravenous; type: in vivo, cat; details: 6 animals
mongrel cats [4] = assay: Inotropic and heart-circulatory effectiveness on narcotised cats, intraduodenal; type: in vivo, cat; details: 5 mg/kg intraduodenal
[5] = 0.25 mg/kg i.v., before administration

## N[C@@H]1CO[C@H]2[C@@H]1OC[C@@H]2O[N+](=O)[O-] [2 b]
[1]
  LD50 at 24 h: > 200 mg/kg
Female NMRI-albino mice; 200 mg/kg i.v.
  Frequency of death: 0/3
[2]
  activation at 25 µg/mL: 25.9%
Narcotised guinea pigs; 0.25 mg/kg i.v.
  blood pressure after: 50.25 ± 8.19 mm.Hg
  blood pressure Δ: -5.75 mm.Hg
  blood pressure before: 56.00 ± 7.91 mm.Hg
Narcotised guinea pigs; 1.00 mg/kg i.v.
  blood pressure after: 41.50 ± 4.66 mm.Hg
  blood pressure Δ: -14.25 mm.Hg
Narcotised guinea pigs; 2.50 mg/kg i.v.
  blood pressure after: 31.75 ± 3.09 mm.Hg
  blood pressure Δ: -19.50 mm.Hg

## O=[N+]([O-])O[C@H]1CO[C@H]2[C@@H]1OC[C@@H]2N1CCCC1 [14 b]
[1]
  LD50 at 24 h: ≥ 200 mg/kg
Female NMRI-albino mice; 200 mg/kg i.v.
  Frequency of death: 1/3
[2]
  activation at 25 µg/mL: 25.4%
Narcotised guinea pigs; 0.25 mg/kg i.v.
  blood pressure after: 65.75 ± 0.75 mm.Hg
  blood pressure Δ: -5.50 mm.Hg
  blood pressure before: 71.25 ± 0.63 mm.Hg
Narcotised guinea pigs; 1.00 mg/kg i.v.
  blood pressure after: 56.25 ± 2.17 mm.Hg
  blood pressure Δ: -14.00 mm.Hg
Narcotised guinea pigs; 2.50 mg/kg i.v.
  blood pressure after: 49.25 ± 3.94 mm.Hg
  blood pressure Δ: -18.50 mm.Hg

## CN1CCN([C@H]2CO[C@H]3[C@@H]2OC[C@@H]3O[N+](=O)[O-])CC1 [17 b]
[1]
  LD50 at 24 h: > 200 mg/kg
Female NMRI-albino mice; 200 mg/kg i.v.
  Frequency of death: 0/3
[2]
  activation at 25 µg/mL: 25.1%
Narcotised guinea pigs; 0.25 mg/kg i.v.
  blood pressure after: 59.00 ± 2.27 mm.Hg
  blood pressure Δ: -4.50 mm.Hg
  blood pressure before: 63.50 ± 3.77 mm.Hg
Narcotised guinea pigs; 1.00 mg/kg i.v.
  blood pressure after: 46.25 ± 3.07 mm.Hg
  blood pressure Δ: -17.75 mm.Hg
Narcotised guinea pigs; 2.50 mg/kg i.v.
  blood pressure after: 38.25 ± 4.55 mm.Hg
  blood pressure Δ: -23.50 mm.Hg

## O=[N+]([O-])O[C@H]1CO[C@H]2[C@@H]1OC[C@@H]2NCC(O)COc1cccc(C(F)(F)F)c1 (stereo partly drawn) [Example 52, 5-[2-Hydroxy-3-(3-trifluoromethylphenoxy)-propylamino]-5-desoxy-1.4;3.6-dianhydro-L-iditol 2-nitrate]
[1]
  LD50 at 24 h: 100 to 200 mg/kg
Female NMRI-albino mice; 100 mg/kg i.v.
  Frequency of death: 1/3
Female NMRI-albino mice; 200 mg/kg i.v.
  Frequency of death: 6/6
[2]
  activation at 25 µg/mL: 214%
Mongrel cats [3]; [5]
  blood pressure before: 91.7 mm.Hg
  dp/dt (inotropism) before: 6150 mm.Hg/sec
  heart frequency before: 216.7 min⁻¹
Mongrel cats [3]; 0.25 mg/kg i.v.
  blood pressure WD: 5.6 min
  blood pressure after: 77.2 mm.Hg
  blood pressure Δ: -14.5 mm.Hg
  dp/dt (inotropism) after: 5517 mm.Hg/sec
  dp/dt (inotropism) Δ: -633 mm.Hg/sec
  dp/dt WD: 4.2 min
  heart frequency after: 216.7 min⁻¹
  heart frequency Δ: 0 min⁻¹
Mongrel cats [3]; 0.50 mg/kg i.v.
  blood pressure WD: 11.7 min
  blood pressure after: 74.8 mm.Hg
  blood pressure Δ: -19.9 mm.Hg
  dp/dt (inotropism) after: 5133 mm.Hg/sec
  dp/dt (inotropism) Δ: -850 mm.Hg/sec
  dp/dt WD: 10.5 min
  heart frequency after: 217.0 min⁻¹
  heart frequency Δ: 0 min⁻¹
Mongrel cats [3]; 1.00 mg/kg i.v.
  blood pressure WD: 14.7 min
  blood pressure after: 69.2 mm.Hg
  blood pressure Δ: -26.5 mm.Hg
  dp/dt (inotropism) after: 4250 mm.Hg/sec
  dp/dt (inotropism) Δ: -1333 mm.Hg/sec
  dp/dt WD: 15.3 min
  heart frequency after: 217.3 min⁻¹
  heart frequency Δ: -1.0 min⁻¹
Mongrel cats [3]; 2.50 mg/kg i.v.
  blood pressure WD: > 10 min
  blood pressure after: 60.5 mm.Hg
  blood pressure Δ: -34.5 mm.Hg
  dp/dt (inotropism) after: 2733 mm.Hg/sec
  dp/dt (inotropism) Δ: -2500 mm.Hg/sec
  dp/dt WD: > 10 min
  heart frequency after: 204.0 min⁻¹
  heart frequency Δ: -14.3 min⁻¹
Narcotised guinea pigs; 0.25 mg/kg i.v.
  blood pressure after: 60.50 ± 1.32 mm.Hg
  blood pressure Δ: -5.00 mm.Hg
  blood pressure before: 65.50 ± 1.50 mm.Hg
Narcotised guinea pigs; 1.00 mg/kg i.v.
  blood pressure after: 49.25 ± 4.37 mm.Hg
  blood pressure Δ: -11.75 mm.Hg
Narcotised guinea pigs; 2.50 mg/kg i.v.
  blood pressure after: 39.00 ± 4.38 mm.Hg
  blood pressure Δ: -17.75 mm.Hg
Mongrel cats [4]; 0 min after admin.
  blood pressure: 113.8 ± 5.8 mm.Hg
  dp/dt (inotropism): 6540 ± 631 mm.Hg/sec
  heart frequency: 209.6 ± 15.7 min⁻¹
Mongrel cats [4]; 10 min after admin.
  blood pressure: 100.4 mm.Hg
  blood pressure Δ: -13.4 mm.Hg
  dp/dt (inotropism): 6200 ± 374 mm.Hg/sec
  dp/dt (inotropism) Δ: -340 mm.Hg/sec
  heart frequency: 212.4 ± 13.8 min⁻¹
Mongrel cats [4]; 30 min after admin.
  blood pressure: 95.6 ± 9.9 mm.Hg
  blood pressure Δ: -18.2 mm.Hg
  dp/dt (inotropism): 6120 ± 270 mm.Hg/sec
  dp/dt (inotropism) Δ: -440 mm.Hg/sec
  heart frequency: 212.8 ± 13.1 min⁻¹
Mongrel cats [4]; 60 min after admin.
  blood pressure: 95.8 ± 8.0 mm.Hg
  blood pressure Δ: -18.0 mm.Hg
  dp/dt (inotropism): 5480 ± 314 mm.Hg/sec
  dp/dt (inotropism) Δ: -1060 mm.Hg/sec
  heart frequency: 216.0 ± 12.3 min⁻¹
Mongrel cats [4]; 120 min after admin.
  blood pressure: 98.4 ± 9.0 mm.Hg
  blood pressure Δ: -15.4 mm.Hg
  dp/dt (inotropism): 5460 ± 768 mm.Hg/sec
  dp/dt (inotropism) Δ: -1080 mm.Hg/sec
  heart frequency: 214.4 ± 11.6 min⁻¹
